# According to patent US20240092800A1, “USP13 INHIBITORS AND METHODS OF USE THEREOF” (GEORGETOWN UNIVERSITY, priority 2021, published 2024):
# Experiments:
# human USP13 = target: T1, human USP13 (Homo sapiens, UniProt Q92995); assay: USP13 activity via ELISA in SHSY5Y cells; type: cell-based; settings: for IC50: SHSY5Y cell line, estimated with GraphPad Prism, read-out: IC50 to inhibit USP13 activity; for USP13 activity via ELISA: SHSY5Y cells, 5 hours, concentration range of 1 nM-1 mM
# T1 construct: USP13 activity via ELISA in human SHSY5Y neuroblastoma cells; endogenous in cells; host or cells: human SH-SY5Y neuroblastoma cells (transiently transfected with human wild-type alpha-synuclein, not with USP13)
# T1 sequence (Q92995 1-863): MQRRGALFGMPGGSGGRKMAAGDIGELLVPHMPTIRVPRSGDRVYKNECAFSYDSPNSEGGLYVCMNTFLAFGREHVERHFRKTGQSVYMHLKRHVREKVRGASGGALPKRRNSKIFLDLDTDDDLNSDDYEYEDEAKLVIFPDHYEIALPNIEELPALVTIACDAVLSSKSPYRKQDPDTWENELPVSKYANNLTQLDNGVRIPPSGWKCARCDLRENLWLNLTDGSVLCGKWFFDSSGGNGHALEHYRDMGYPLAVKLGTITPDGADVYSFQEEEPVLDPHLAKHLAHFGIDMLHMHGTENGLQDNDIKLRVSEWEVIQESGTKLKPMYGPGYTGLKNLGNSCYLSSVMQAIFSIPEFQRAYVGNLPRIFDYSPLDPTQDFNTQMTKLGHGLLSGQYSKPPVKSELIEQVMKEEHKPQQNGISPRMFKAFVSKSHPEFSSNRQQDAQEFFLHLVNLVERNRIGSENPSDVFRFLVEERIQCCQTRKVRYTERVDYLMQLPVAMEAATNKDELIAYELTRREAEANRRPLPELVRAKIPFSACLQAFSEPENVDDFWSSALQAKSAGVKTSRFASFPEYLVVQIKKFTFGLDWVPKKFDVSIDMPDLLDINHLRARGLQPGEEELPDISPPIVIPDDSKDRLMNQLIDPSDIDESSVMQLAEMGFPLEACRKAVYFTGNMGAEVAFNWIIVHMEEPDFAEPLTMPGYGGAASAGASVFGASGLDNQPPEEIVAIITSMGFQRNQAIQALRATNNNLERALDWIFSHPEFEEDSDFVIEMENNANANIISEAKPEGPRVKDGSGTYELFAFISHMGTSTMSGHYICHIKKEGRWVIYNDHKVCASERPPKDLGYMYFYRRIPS
# Method: (§1) Cell lines, transfection, and treatment.
# (§2) A total of 25 μL soluble protein was incubated overnight at 4° C. with 25 μL of a mixed bead solution. After washing, samples were incubated with 25 μL detection antibody solution for 1.5 hours at room temperature. Streptavidin-phycoerythrin (25 μL) was added to each well containing the 25 μL of detection antibody solution. Samples were then washed and suspended in 100 μL of sheath fluid. Samples were then run on MAGPIX with Xponent software. The median fluorescent intensity (MFI) data were analyzed using a 5-parameter logistic or spline curve-fitting method for calculating analyte concentrations in samples. Specific alpha-synuclein ELISAs were performed on tissue soluble extracts from midbrain lysates in 1XSTEN buffer. The ELISA for USP13 (MyBioSource, Cat # MBS9335287), Human alpha-synuclein (Biolegend, Cat #844101) and specific p-Tau ser396 (Invitrogen, KHB7031) were performed on cell or brain tissue extracts as described above according to manufacturers' protocol.
# Statistical and Data Analysis. All statistical analyses were performed using GraphPad Prism version 5.0 (GraphPad software, Inc, San Diego, CA, USA). Two-tailed student's t-test was used in comparison of means of two groups. Ordinary one-way analysis of variance (ANOVA) followed by Newman-Keuls or Dunnett comparison post hoc tests were used in comparison of means of multiple groups. Asterisks denote actual p-value significances (*<0.05, **<0.01, ***<0.001 and ****<0.0001), and N is the number of animals or the number of independent experiments (cell culture) per group. Unless otherwise indicated, data are expressed as Mean±SD. IC50 to USP13 levels was also estimated using GraphPad Prism version 5.0 (GraphPad software, Inc, San Diego, CA, USA).
# [1] = test system: human SHSY5Y neuroblastoma cells; assay: Cell viability by MTT and LDH assays; settings: 5 hours, up to 1 mM concentration
# Method: Human SHSY-5Y neuroblastoma cells were cultured in Dulbecco's Modified Eagle's Medium (DMEM) (ThermoFisher Scientific; Waltham, MA) with 10% Fetal Bovine Serum (FBS) (ThermoFisher) and 1% Penicillin-Streptomycin (PenStrep, ThermoFisher) and incubated at 37° C. under atmospheric oxygen concentrations (21%) with 5% CO2. SHSY-5Y cells were cultured in DMEM with Ham's F12 (1:1) (ThermoFisher) with 20% FBS, 1% PenStrep. Cells were plated at a density tailored to reach 70-80% confluence at the beginning of every experiment. SH-SY5Y cells were transiently transfected for 24 hours with human wild-type α-synuclein using Fugene HD transfection reagent (Promega; Madison, WI) before fresh culture media and drug were added.
# Cell viability was determined via lactate dehydrogenase assay on culture media, (ThermoFisher) and MTT assay on plated cells (ThermoFisher).
# human alpha-synuclein = assay: Alpha-synuclein levels via ELISA in alpha-synuclein-transfected SHSY5Y cells; type: cell-based; settings: 5 hours, concentration between 1 and 0.1 nM
# Method: as §1
# Alpha-Synuclein Enzyme-Linked Immunosorbent Assay (ELISA). ELISAs for total human alpha-synuclein (Millipore; Burlington, MA) were conducted using Milliplexed ELISA. Briefly, Xmap technology uses magnetic microspheres that are internally coded with two fluorescent dyes. Through precise combinations of these two dyes, multiple proteins are simultaneously measured within a sample. Each of these spheres is coated with a specific capture antibody. The capture antibody binds to the detection antibody and a reporter molecule, completing the reaction on the surface of the bead.
# as §2
Compound,IC50 (human USP13),USP13 activity via ELISA (human USP13),cell death in two viability assays (MTT and LDH) [1],level of alpha-synuclein via ELISA (human alpha-synuclein)
"c1ccc(Nc2ccnc3ccsc23)cc1 [BK50118-A, N-Phenylthieno[3,2-b]pyridin-7-amine]",26 nM,significantly reduce the activity of human USP13,do not cause cell death,significantly reduce the level of alpha-synuclein
"Fc1ccc2nccc(Nc3ccccc3)c2c1 [BK50118-B, 6-Fluoro-N-phenylquinolin-4-amine]",36.9 nM,significantly reduce the activity of human USP13,do not cause cell death,significantly reduce the level of alpha-synuclein
"Fc1ccc2nccc(NCc3ccccc3)c2c1 [CL3-499, N-Benzyl-6-fluoroquinolin-4-amine]",1190 nM,significantly reduce the activity of human USP13,do not cause cell death,significantly reduce the level of alpha-synuclein
"COC(=O)[C@H](Cc1ccccc1)Nc1c([N+](=O)[O-])c(=O)oc2ccccc12 [CL3-512, (S)-Methyl (3-nitro-2-oxo-2H-chromen-4-yl)-phenylalaninate]",1080 nM,significantly reduce the activity of human USP13,do not cause cell death,significantly reduce the level of alpha-synuclein
"COC(=O)[C@H](Cc1ccc(O)cc1)Nc1c([N+](=O)[O-])c(=O)oc2ccccc12 [CL3-514, (S)-Methyl (3-nitro-2-oxo-2H-chromen-4-yl)-tyrosinate]",68.9 nM,significantly reduce the activity of human USP13,do not cause cell death,significantly reduce the level of alpha-synuclein
"Fc1ccc(CNc2ncnc3ccc(F)cc23)cc1 [Spautin-1, reference compound]",600 to 700 nM,–,–,–
